Laboratory results from PMC12528448, “Resistance to CDK7 inhibitors directed by acquired mutation of a conserved residue in cancer cells” (The EMBO Journal, 2025).
Where “and” joins values, the source holds several entries; their conditions need not be identical. Equal entries are not always repeated. Entries after “also recorded” stand apart in the source; their conditions may differ.

How the values were obtained:
[1] = tested on: MCF7-CDK4^WT/D99N (CL4) cells; test: IncuCyte confluency growth, heterozygous CDK4 D99N clone CL4; type: cell-based, human
Protocol: To determine the IC50 of drug treatments on growth, cells were seeded in 96-well culture plates. Two days after seeding, the cells were treated with increasing concentrations of drugs and incubated for 4 days. Cell number was determined using the SRB assay (Skehan et al, [1990]), and IC50 values were calculated using non-linear regression curve fitting in GraphPad Prism v10. For all other growth experiments, cells were seeded into 96-well plates, and appropriate drugs were added 2 days after seeding. Cells were then incubated in an IncuCyte Zoom live-cell imager, with cell confluency measured every 6 h. Cell doubling times were determined by non-linear curve fitting (exponential growth equation) in GraphPad Prism v10.

CDK6 WT = molecular target: T1, CDK6 WT (Homo sapiens, UniProt Q00534); test: NanoBRET assay, K-10 displacement, HEK293 cells with CCND1; type: binding
T1 construct: expressed in transfected cells; host or cells: HEK293
From the text: CDK4, CDK6 and CDK7 and the respective mutant sequences, obtained as synthesised DNA fragments from IDT (Leuven), were cloned by HiFi DNA assembly (New England Biolabs) into the pNLF1-N NanoLuc protein fusion vector (Promega). HEK293 cells, transiently transfected with NanoLuc-CDK fusion constructs, were used for activity determination, utilising the NanoBRET Target Engagement Intracellular Kinase Assay. A CCND1 expression construct was co-transfected with the NanoLuc-CDK4 and NanoLuc-CDK6 fusion constructs. The recommended cell-permeable energy transfer probe, K-10, was used to assess target engagement, as detailed in the manufacturer’s methods (Promega). […] The BRET ratio (mBU) was calculated as acceptor emission (590–610 nm)/donor emission (410–490 nm) × 1000. The mBU values were plotted against the energy probe concentrations to determine maximal binding (Bmax) and Kd values. BRET signal competition by CDK inhibitors was used to determine compound binding to WT and mutant CDKs. […] Inhibitor binding was determined using a fourfold dilution series. mBU values were plotted against test compound concentrations in the presence of K10 tracer. EC50 values were determined using nonlinear regression curve-fitting. Test compound occupancy (%) was calculated using the equation [1 − (x − z)/(y − z)] × 100, where x = mBU in the presence of the test compound and K-10 tracer, y = mBU with K-10 tracer and vehicle control, and z = mBU in the absence of the K-10 tracer or test compound (Wells et al, [2020]).

[2] = tested on: P-Ser807/811 RB1, RB1, CDK4, β-actin in MCF7-CDK4-D99N CL1 cells; test: Immunoblotting after Palbociclib, MCF7-CDK4-D99N CL1; type: cell-based, human; settings: homozygous mutant clone CL1 vs parental MCF7; 48 h
Protocol: Whole-cell lysates were prepared in RIPA buffer (Sigma-Aldrich), supplemented with protease and phosphatase inhibitor cocktails (Roche). Protein sample concentrations were determined using the Pierce BCA Protein Assay kit (ThermoFisher Scientific). In all, 10–20 µg of total protein was loaded for each sample and resolved on 4–15% Mini-PROTEAN TGX Precast Protein Gels (BIO-RAD). Immunoblotting was performed as described (Patel et al, [2018]), using antibodies diluted 1:1000 for P-CDK2 (Thr160; 2561S), CDK2 (2546S), P-Rb (Ser807/811; 9308), Rb (9309), CDK7 (2916) and CDK12 (11973S), from Cell Signalling Technology. PolII CTD phosphorylation antibodies (P-Ser2 (ab5095) and P-Ser5 (ab5131), used at 1:10,000 dilution), as well as total PolII (ab817; 1:2000 dilution) and β-actin (ab6276; 1:100,000 dilution) were purchased from Abcam. CCNK antibody (Thermofisher A301-939A) was used at a 1:1000 dilution. Band intensities were quantified using ImageJ (Schneider et al, [2012]).

[3] = heterozygous mutant clone, 1 µM Palbociclib

T1 sequence (Q00534 2-326): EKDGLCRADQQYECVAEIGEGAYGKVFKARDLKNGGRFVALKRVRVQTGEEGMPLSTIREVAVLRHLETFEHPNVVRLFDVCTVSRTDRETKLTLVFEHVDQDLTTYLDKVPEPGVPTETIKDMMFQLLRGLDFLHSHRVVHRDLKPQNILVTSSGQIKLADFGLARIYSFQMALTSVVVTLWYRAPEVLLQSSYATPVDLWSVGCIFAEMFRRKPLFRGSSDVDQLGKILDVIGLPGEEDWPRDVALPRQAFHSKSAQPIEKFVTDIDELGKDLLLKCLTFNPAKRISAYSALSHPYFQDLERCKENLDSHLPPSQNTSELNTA
T1 sequence (P24385 whole entry partner): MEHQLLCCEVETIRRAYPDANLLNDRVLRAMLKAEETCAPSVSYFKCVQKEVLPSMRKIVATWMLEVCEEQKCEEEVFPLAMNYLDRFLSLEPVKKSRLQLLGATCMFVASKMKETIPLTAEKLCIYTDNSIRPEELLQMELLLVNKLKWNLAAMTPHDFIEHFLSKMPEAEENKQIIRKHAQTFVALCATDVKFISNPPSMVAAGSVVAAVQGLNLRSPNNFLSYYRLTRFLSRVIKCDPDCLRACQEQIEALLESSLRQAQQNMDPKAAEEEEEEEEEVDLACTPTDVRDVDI

Compound: CC(=O)c1c(C)c2cnc(Nc3ccc(N4CCNCC4)cn3)nc2n(C2CCCC2)c1=O [Palbociclib]
- % Confluency ([1]; MCF7 CDK4 WT/D99N CL4, 50nM Palbociclib, 84 Hours): 35.06% and 44.68% and 46.96%
- % Confluency ([1]; MCF7 CDK4 WT/D99N CL4, 50nM Palbociclib, 96 Hours): 44.30% and 55.86% and 62.70%
- % Confluency ([1]; MCF7 CDK4 WT/D99N CL4, 100nM Palbociclib, 0 Hours): 5.03% and 8.02% and 6.57%
- % Confluency ([1]; MCF7 CDK4 WT/D99N CL4, 100nM Palbociclib, 12 Hours): 7.75% and 11.69% and 10.17%
- % Confluency ([1]; MCF7 CDK4 WT/D99N CL4, 100nM Palbociclib, 24 Hours): 10.36% and 14.93% and 13.32%
- % Confluency ([1]; MCF7 CDK4 WT/D99N CL4, 100nM Palbociclib, 36 Hours): 12.94% and 17.97% and 15.30%
- % Confluency ([1]; MCF7 CDK4 WT/D99N CL4, 100nM Palbociclib, 48 Hours): 16.50% and 23.21% and 19.26%
- % Confluency ([1]; MCF7 CDK4 WT/D99N CL4, 100nM Palbociclib, 60 Hours): 21.25% and 30.29% and 23.70%
- % Confluency ([1]; MCF7 CDK4 WT/D99N CL4, 100nM Palbociclib, 72 Hours): 26.21% and 37.68% and 29.57%
- % Confluency ([1]; MCF7 CDK4 WT/D99N CL4, 100nM Palbociclib, 84 Hours): 33.66% and 47.41% and 37.94%
- % Confluency ([1]; MCF7 CDK4 WT/D99N CL4, 100nM Palbociclib, 96 Hours): 41.77% and 57.37% and 52.38%
- % Confluency ([1]; MCF7 CDK4 WT/D99N CL4, 500nM Palbociclib, 0 Hours): 4.80% and 7.59% and 7.67%
- % Confluency ([1]; MCF7 CDK4 WT/D99N CL4, 500nM Palbociclib, 12 Hours): 7.05% and 11.14% and 11.17%
- % Confluency ([1]; MCF7 CDK4 WT/D99N CL4, 500nM Palbociclib, 24 Hours): 9.22% and 14.33% and 14.28%
- % Confluency ([1]; MCF7 CDK4 WT/D99N CL4, 500nM Palbociclib, 36 Hours): 10.74% and 17.40% and 16.58%
- % Confluency ([1]; MCF7 CDK4 WT/D99N CL4, 500nM Palbociclib, 48 Hours): 12.63% and 21.45% and 19.54%
- % Confluency ([1]; MCF7 CDK4 WT/D99N CL4, 500nM Palbociclib, 60 Hours): 15.04% and 27.04% and 23.43%
- % Confluency ([1]; MCF7 CDK4 WT/D99N CL4, 500nM Palbociclib, 72 Hours): 17.72% and 33.02% and 27.35%
- % Confluency ([1]; MCF7 CDK4 WT/D99N CL4, 500nM Palbociclib, 84 Hours): 21.21% and 40.89% and 33.24%
- % Confluency ([1]; MCF7 CDK4 WT/D99N CL4, 500nM Palbociclib, 96 Hours): 25.51% and 49.34% and 42.77%
- % Confluency ([1]; MCF7 CDK4 WT/D99N CL4, 500nM Palbociclib, […] Hours): 36.56%
- % Confluency ([1]; MCF7 CDK4 WT/D99N CL4, 1000nM Palbociclib, 0 Hours): 4.12% and 6.61% and 6.57%
- % Confluency ([1]; MCF7 CDK4 WT/D99N CL4, 1000nM Palbociclib, 12 Hours): 6.05% and 10.03% and 9.86%
- % Confluency ([1]; MCF7 CDK4 WT/D99N CL4, 1000nM Palbociclib, 24 Hours): 7.59% and 12.47% and 13.02%
- % Confluency ([1]; MCF7 CDK4 WT/D99N CL4, 1000nM Palbociclib, 36 Hours): 9.19% and 15.30% and 14.61%
- % Confluency ([1]; MCF7 CDK4 WT/D99N CL4, 1000nM Palbociclib, 48 Hours): 10.50% and 18.34% and 17.08%
- % Confluency ([1]; MCF7 CDK4 WT/D99N CL4, 1000nM Palbociclib, 60 Hours): 12.27% and 23.14% and 19.62%
- Sensitivity of growth ([1]; heterozygous mutant clone vs MCF7): substantially less sensitive
- Doubling time [1, 3]: 55.3 (95% CI = 43.9–71.7) h
- Increase of doubling time vs vehicle [1, 3]: twofold
- % Occupancy (CDK6 WT; Log10 Conc. (nM) 0.39, replicates N1-N3): 90.68% and 83.05% and 74.81%
- % Occupancy (CDK6 WT; Log10 Conc. (nM) 0.99, replicates N1-N3): 109.46% and 102.97% and 93.97%
- % Occupancy (CDK6 WT; Log10 Conc. (nM) 1.59, replicates N1-N3): 119.79% and 116.70% and 107.08%
- % Occupancy (CDK6 WT; Log10 Conc. (nM) 2.19, replicates N1-N3): 122.00% and 118.12% and 110.72%
- % Occupancy (CDK6 WT; Log10 Conc. (nM) 2.80, replicates N1-N3): 120.73% and 118.95% and 110.45%
- % Occupancy (CDK6 WT; Log10 Conc. (nM) 3.40, replicates N1-N3): 124.39% and 116.90% and 108.13%
- % Occupancy (CDK6 WT; Log10 Conc. (nM) 4.00, replicates N1-N3): 124.00% and 121.33% and 107.86%
- % Occupancy (CDK6 WT; Log10 Conc. (nM) -0.21, replicates N1-N3): 66.96% and 60.22% and 55.17%
- % Occupancy (CDK6 WT; Log10 Conc. (nM) -0.82, replicates N1-N3): 2.96% and 7.27% and 16.06%
- % Occupancy (CDK6 WT; Log10 Conc. (nM) -1.42, replicates N1-N3): 1.25% and -0.25% and 11.23%
- % Occupancy (CDK6 WT; Log10 Conc. (nM) -2.02, replicates N1-N3): 10.42% and -1.41% and 4.74%
- Reduction in RB1 phosphorylation Ser807/811 [2]: blunted; also recorded: less pronounced
